Legend:
WT and mutant BMMs = test: IFN-β induction in various host strains (WT and knockout BMMs), ISRE L929 bioassay; format: cell-based, mouse; conditions: 3 μM with digitonin, 6 hours; WT vs myd88-trif−/−, irf3−/−, mays−/− macrophages; parallel to L. monocytogenes (IRF3 and STING dependent, MyD88/Trif and MAVS independent); FIG. 9
Procedure: BMMs were differentiated as described previously (S3). For mays−/−macrophages, heterozygous mice were used as a control. WT and mutant BMMs were plated in 24-well plates ([…]) the evening prior to use. For infections, 2×10^6 bacteria from 30° C. overnight cultures were washed with PBS and added to each well containing 500 μL of BMM media. For c-di-AMP treatment, synthetic standard was dissolved in digitonin solution to a final concentration of 3 μM. Media was aspirated from cells and replaced with 200 μL of c-di-AMP/digitonin mix. From this point on infections and c-di-AMP samples were treated the same. At 30 minutes wells were aspirated and replaced with fresh BMM media. At 1 hour post infection gentamycin (50 μg/mL) was added. For LPS treatment, 100 ng of sonicated LPS stock solution (50 μg/mL) was added to appropriate wells containing 500 μL of BMM media. Supernatants from all wells were collected and analyzed by ISRE L929 bioassay for IFN-β activity at 6 hours. • 10. Supporting References • S1. D. A. Portnoy, P. S. Jacks, D. J. Hinrichs, Role of hemolysin for the intracellular growth of Listeria monocytogenes. J. Exp. Med. 167, 1459 (1988). • S2. L. Phan-Thanh, T. Gormon, A chemically defined minimal medium for the optimal culture of Listeria. Int. J. Food Microbiol. 35, 91 (1997). • S3. […]

[1] = system: bone marrow derived macrophages (BMM); test: IFN-β bio-assay: samples delivered to BMM cytosol by digitonin, type I IFN read with ISRE-L929 luciferase reporter cells; format: cell-based, mouse; conditions: FIG. 3d
Procedure: Mouse bone marrow from 6-8 week old female mice was differentiated to bone marrow derived macrophages (BMM) as described previously (S3). Interferon responsive ISRE-L929 cells were cultured in ISRE media (DMEM, 2 mM glutamine, 1 mM pyruvate, 10% heat inactivated FBS, and penicillin-streptomycin). Induction of type-I interferon was assessed using BMMs plated in 96-well flat bottom tissue culture treated plates (10^5 cells/well) a minimum of 12 hours prior to use in BMM media (DMEM, 2 mM glutamine, 1 mM pyruvate, 10% CSF from 3T3 cells, and 20% heat inactivated FBS). Samples (10 μL) of L. monocytogenes supernatants, HPLC fractions, and cyclic di-AMP standard (Biolog Life Sciences Institute, […]) were mixed with a 10× volume of digitonin permeabilization solution (50 mM HEPES pH 7.0, 100 mM KCl, 3 mM MgCl2, 0.1 mM DTT, 85 mM Sucrose, 0.2% BSA, 1 mM ATP, 0.1 mM GTP, ±10 μg/mL Digitonin) (S4). Media was aspirated from the cells and replaced with 50 μL each sample mixture. Cells were incubated for 30 minutes at 37° C. […] Finally, 40 μL of luciferase substrate solution (20 mM Tricine, 2.67 mM MgSO4.7H2O, 0.1 mM EDTA, 33.3 mM DTT, 530 μM ATP, 270 μM acetyl CoA lithium salt, 470 μM luciferin, 5 mM NaOH, 265 μM magnesium carbonate hydroxide) was added to each well and luminescence was measured using a VICTOR3 luminometer (PerkinElmer). • 8. […]

host IFN pathway = conditions: delivered to the host cytosol; reference 29; cited from earlier work

Nc1ncnc2c1ncn2[C@@H]1O[C@@H]2COP(=O)(O)O[C@H]3[C@@H](O)[C@H](n4cnc5c(N)ncnc54)O[C@@H]3COP(=O)(O)O[C@H]2[C@H]1O [c-di-AMP, cyclic di-adenosine monophosphate]
host signaling pathway required for detection (type-I IFN) (WT and mutant BMMs): requires a parallel host-signaling pathway
cell permeability (cells): not cell permeable
induction of inflammation (cells; added to the outside of cells): does not induce inflammation
IFN-β induction in macrophages ([1]; commercially available c-di-AMP delivered to the cytosol of murine BMMs): dose-dependent response
IFN-β inducing activity after treatment with snake venom phosphodiesterase (SVPD) ([1]; sample treated with SVPD): abolished the activity

Nc1nc2c(ncn2[C@@H]2O[C@@H]3COP(=O)(O)O[C@H]4[C@@H](O)[C@H](n5cnc6c(=O)[nH]c(N)nc65)O[C@@H]4COP(=O)(O)O[C@H]3[C@H]2O)c(=O)[nH]1 [c-di-GMP]
activation of host IFN pathway (host IFN pathway): specifically activates the host IFN pathway

Reference: US9763987B2, “Cyclic di-AMP induction of type I interferon” (priority 2010, dated 2017)
